In US5541175A, “Cephalosporin antibiotics” (Lucky, Ltd., priority 1993, dated 1996):
Values after ≈ are worked out from the molar mass of the structure shown. Where two headings read alike, the source gives them in different places.

Columns and labels:
[1] = tested on: Acinetobacter calcoaceticus 15473A; assay: Minimum inhibitory concentration (agar 2-fold dilution); format: cell-based; conditions: A. calcoaceticus 15473A, Muller-Hinton agar, 37° C., 20 hours, read-out: Minimum Inhibitory Concentration
Experimental: (§1) The minimum inhibitory concentration was determined by diluting the test compounds according to 2-fold dilution, suspending them in Muller-Hinton agar medium, inoculating 2 μl of the suspension containing the test strains having 10^7 CFU (Colony Forming Unit) per 1 ml into the medium and then culturing the test strains at 37° C. for 20 hours.

[2] = tested on: Enterobacter cloacae P99; assay: as above; format: cell-based; conditions: P99, 20 h, read-out: Minimum Inhibitory Concentration
Experimental: as §1

[3] = tested on: Escherichia coli TEM1 1193E; assay: as above; format: cell-based; conditions: TEM11193E, 20 h, read-out: Minimum Inhibitory Concentration
Experimental: as §1

[4] = tested on: Pseudomonas aeruginosa 6065; assay: as above; format: cell-based; conditions: Pseudomonas aeruginosa; P. aeruginosa 6065; Muller-Hinton agar, 37° C., 20 hours; read-out: Minimum Inhibitory Concentration
Experimental: as §1

[5] = tested on: Escherichia coli 3190Y; assay: as above; format: cell-based; conditions: read-out: Minimum Inhibitory Concentration
Experimental: as §1

[6] = tested on: Escherichia coli 10536; assay: as above; format: cell-based; conditions: Escherichia coli; E. coli 10536; Muller-Hinton agar, 37° C., 20 hours; read-out: Minimum Inhibitory Concentration
Experimental: as §1

[7] = tested on: Klebsiella aerogenes K1 + 1082E; assay: as above; format: cell-based; conditions: 20 h, read-out: Minimum Inhibitory Concentration
Experimental: as §1

[8] = tested on: Proteus vulgaris 6059A; assay: as above; format: cell-based; conditions: P. vulgaris 6059A, Muller-Hinton agar, 37° C., 20 hours, read-out: Minimum Inhibitory Concentration
Experimental: as §1

[9] = tested on: Staphylococcus aureus epidermidis 887E; assay: as above; format: cell-based; conditions: S. aureus epidermidis 887E, Muller-Hinton agar, 37° C., 20 hours, read-out: Minimum Inhibitory Concentration
Experimental: as §1

[10] = tested on: Salmonella typhimurium 14028A; assay: as above; format: cell-based; conditions: Salmonella enterica; S. typhimurium 14028A; Muller-Hinton agar, 37° C., 20 hours; read-out: Minimum Inhibitory Concentration
Experimental: as §1

[11] = tested on: Streptococcus faecalis 29212A; assay: as above; format: cell-based; conditions: Enterococcus faecalis; S. faecalis 29212A; Muller-Hinton agar, 37° C., 20 hours; read-out: Minimum Inhibitory Concentration
Experimental: as §1

[12] = tested on: Pseudomonas aeruginosa 10145; assay: as above; format: cell-based; conditions: Pseudomonas aeruginosa; P. aeruginosa 10145; Muller-Hinton agar, 37° C., 20 hours; read-out: Minimum Inhibitory Concentration
Experimental: as §1

[13] = tested on: Escherichia coli TEM9 2639E; assay: as above; format: cell-based; conditions: TEM92639E, 20 h, read-out: Minimum Inhibitory Concentration
Experimental: as §1

[14] = tested on: Staphylococcus aureus 241; assay: as above; format: cell-based; conditions: Staphylococcus aureus; S. aureus 241; Muller-Hinton agar, 37° C., 20 hours; read-out: Minimum Inhibitory Concentration
Experimental: as §1

[15] = tested on: Escherichia coli TEM7 3457E; assay: as above; format: cell-based; conditions: TEM73457E, 20 h, read-out: Minimum Inhibitory Concentration
Experimental: as §1

[16] = tested on: Serratia marcescens 1826E; assay: as above; format: cell-based; conditions: S. marcescens 1826E, Muller-Hinton agar, 37° C., 20 hours, read-out: Minimum Inhibitory Concentration
Experimental: as §1

[17] = tested on: Pseudomonas aeruginosa 1912E; assay: as above; format: cell-based; conditions: P. aeruginosa 1912E, Muller-Hinton agar, 37° C., 20 hours, read-out: Minimum Inhibitory Concentration
Experimental: as §1

[18] = tested on: Enterobacter cloacae IND + VE 1194E; assay: as above; format: cell-based; conditions: E. cloacae IND + VE 1194E, Muller-Hinton agar, 37° C., 20 hours, read-out: Minimum Inhibitory Concentration
Experimental: as §1

[19] = tested on: Staphylococcus aureus 6538P; assay: as above; format: cell-based; conditions: S. aureus 6538P, Muller-Hinton agar, 37° C., 20 hours, read-out: Minimum Inhibitory Concentration
Experimental: as §1

[20] = tested on: Staphylococcus aureus giorgio; assay: as above; format: cell-based; conditions: read-out: Minimum Inhibitory Concentration
Experimental: as §1

[21] = tested on: Escherichia coli TEM3 3455E; assay: as above; format: cell-based; conditions: TEM33455E, 20 h, read-out: Minimum Inhibitory Concentration
Experimental: as §1

[22] = tested on: Klebsiella aerogenes SHV-1 1976E; assay: as above; format: cell-based; conditions: SHV11976E, K. aerogenes SHV-1 1976E, Muller-Hinton agar, 37° C., 20 hours
Experimental: as §1

[23] = tested on: Escherichia coli TEM5 3739E; assay: as above; format: cell-based; conditions: TEM53739E, 20 h, read-out: Minimum Inhibitory Concentration
Experimental: as §1

[24] = tested on: Escherichia coli 851E; assay: as above; format: cell-based; conditions: E. coli 851E, Muller-Hinton agar, 37° C., 20 hours
Experimental: as §1

[25] = tested on: Staphylococcus aureus 77; assay: as above; format: cell-based; conditions: Staphylococcus aureus; S. aureus 77; Muller-Hinton agar, 37° C., 20 hours; read-out: Minimum Inhibitory Concentration
Experimental: as §1

[26] = tested on: Citrobacter diversus 2046E; assay: as above; format: cell-based; conditions: Citrobacter koseri; C. diversus 2046E; Muller-Hinton agar, 37° C., 20 hours; read-out: Minimum Inhibitory Concentration
Experimental: as §1

[27] = Pharmacokinetic properties in rats (blood concentration by agar well biological assay); design: species or system SD rats (male); conditions: rat, in vivo, iv, 20 mg/kg
Experimental: The pharmacokinetic properties of the compound of the present invention were determined using SD rats (.male.) weighing 230±10 g. Specifically,the test samples were injected into femoral vein in an amount of 20 mg/kg to 4 to 5 test animals. Blood was taken from femoral vein 1, 2.5, 5, 10, 20, 40, 60, 120 and 180 minutes after administration and then subjected to a biological assay using agar well method to measure the blood concentration.

Row | Structure (SMILES) | MIC [1] [µg/mL] | MIC [2] [µg/mL] | MIC [3] [µg/mL] | MIC [4] [µg/mL] | MIC [6] [µg/mL] | MIC [7] [µg/mL] | MIC [8] [µg/mL] | MIC [9] [µg/mL] | MIC [10] [µg/mL] | MIC [11] [µg/mL] | MIC [12] [µg/mL] | MIC [13] [µg/mL] | MIC [14] [µg/mL] | MIC [15] [µg/mL] | MIC [16] [µg/mL] | MIC [17] [µg/mL] | MIC [18] [µg/mL] | MIC [19] [µg/mL] | MIC [21] [µg/mL] | MIC [22] [µg/mL] | also measured
1 | Nc1cc(N)[n+](C/C=C/C2=C(C(=O)[O-])N3C(=O)[C@@H](NC(=O)/C(=N\O[C@H](C(=O)O)c4ccc(O)c(O)c4)c4csc(N)n4)[C@H]3SC2)cn1 [Compound I-1a, 7-[(Z)-2-(2-aminothiazol-4-yl)-2-(α-carboxy-3,4-dihydroxybenzyloxyimino)acetamido]-3-[(E)-3-(4,6-diaminopyrimidinium-1-yl)-1-propen-1-yl]-3-cephem-4-carboxylate] | 1 (≈ 1.46 µM) | 32 (≈ 46.8 µM) | 0.031 (≈ 0.0453 µM) | 1 (≈ 1.46 µM) | ≤ 0.008 | 0.063 (≈ 0.0921 µM) | 0.063 (≈ 0.0921 µM) | 64 (≈ 93.6 µM) | 0.016 (≈ 0.0234 µM) | 4 (≈ 5.85 µM) | 0.25 (≈ 0.366 µM) | 2 (≈ 2.93 µM) | 64 (≈ 93.6 µM) | 0.13 (≈ 0.19 µM) | 0.25 (≈ 0.366 µM) | 0.5 (≈ 0.731 µM) | 4 | 0.5 (≈ 0.731 µM) | 0.13 (≈ 0.19 µM) | 0.13 (≈ 0.19 µM) | MIC ([5]; E. coli 3190Y, Muller-Hinton agar, 37° C., 20 hours): 0.031 µg/mL (≈ 0.0453 µM); MIC ([20]; S. aureus giorgio, Muller-Hinton agar, 37° C., 20 hours): 0.5 µg/mL (≈ 0.731 µM); MIC [23]: 0.5 µg/mL (≈ 0.731 µM); MIC [24]: 0.031 µg/mL (≈ 0.0453 µM); MIC [25]: 4 µg/mL (≈ 5.85 µM); MIC [26]: 0.13 µg/mL (≈ 0.19 µM); AUC [27]: 32700 ng·h/mL; half-life [27]: 34 min
2 | Nc1cc[n+](C/C=C/C2=C(C(=O)[O-])N3C(=O)[C@@H](NC(=O)/C(=N\O[C@H](C(=O)O)c4ccc(O)c(O)c4)c4csc(N)n4)[C@H]3SC2)cn1 [Compound I-2a, 7-[(Z)-2-(2-aminothiazol-4-yl)-2-(α-carboxy-3,4-dihydroxybenzyloxyimino)acetamido]-3-[(E)-3-(4-aminopyrimidinium-1-yl)-1-propen-1-yl]-3-cephem-4-carboxylate] | 0.5 (≈ 0.748 µM) | 8 (≈ 12 µM) | 0.063 (≈ 0.0942 µM) | 4 (≈ 5.98 µM) | 0.016 (≈ 0.0239 µM) | 0.13 (≈ 0.194 µM) | 0.063 (≈ 0.0942 µM) | 32 (≈ 47.9 µM) | 0.03 (≈ 0.0449 µM) | 4 (≈ 5.98 µM) | 0.25 (≈ 0.374 µM) | 1 (≈ 1.5 µM) | 128 (≈ 191 µM) | 0.031 (≈ 0.0464 µM) | 0.5 (≈ 0.748 µM) | 0.5 (≈ 0.748 µM) | 1 | 0.5 (≈ 0.748 µM) | 0.063 (≈ 0.0942 µM) | 0.5 (≈ 0.748 µM) | MIC ([5]; 3190Y, 20 h): 0.063 µg/mL (≈ 0.0942 µM); MIC ([20]; 20 h): 0.25 µg/mL (≈ 0.374 µM); MIC [23]: 0.5 µg/mL (≈ 0.748 µM); MIC [24]: 0.063 µg/mL (≈ 0.0942 µM); MIC [25]: 4 µg/mL (≈ 5.98 µM); MIC [26]: 0.13 µg/mL (≈ 0.194 µM); AUC [27]: 53600 ng·h/mL; half-life [27]: 55 min
